Test systems include ACHN renal; EKVX NSCLC; IGROV1 ovarian; MDA-MB-231 breast; MDA-MB-435; MOLT-4 leukemia; NCI-H522 lung; RPMI-8226 leukemia.
Common to all, as to test: NCI tumour cell line growth inhibition, 48 h

SMILES strings stand for the structures.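 Grown in 96-well plates, cells were treated for 48 hours with each compound at five concentrations. Insufficient inhibition: endpoint recorded as highest concentration tested. GI50 is the concentration that inhibits growth by half. At the TGI there is no net growth.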

`COc1cc(-c2oc3c(OC)c(O)c(OC)c(O)c3c(=O)c2OC)cc(OC)c1OC`: the TGI in the experiment with ACHN renal, in the experiment on EKVX NSCLC, in the experiment with IGROV1 ovarian, in the experiment with MDA-MB-231 breast, with MDA-MB-435 and in the experiment with MOLT-4 leukemia was > 100 µM throughout. Further, the TGI in the experiment on NCI-H522 lung is 81.8 µM; in the experiment on RPMI-8226 leukemia, > 100 µM.
Consider `CO/N=C(/C)COc1ccc2c(c1)oc(=O)c1cc(OC)ccc12`, for which the GI50 with ACHN renal was 75 µM; in the experiment with EKVX NSCLC, > 100 µM; in the experiment with IGROV1 ovarian, > 100 µM; in the experiment with MDA-MB-231 breast it was 34.1 µM; in the experiment with MDA-MB-435, > 100 µM; in the experiment on MOLT-4 leukemia, > 100 µM. Further, the GI50 in the experiment on NCI-H522 lung and with RPMI-8226 leukemia was > 100 µM each time. The TGI in the experiment with ACHN renal, with EKVX NSCLC, with IGROV1 ovarian, in the experiment with MDA-MB-231 breast, in the experiment with MDA-MB-435 and in the experiment with MOLT-4 leukemia was > 100 µM each time. Further, the TGI in the experiment with NCI-H522 lung and with RPMI-8226 leukemia was > 100 µM in each case.
Turning to `COc1cc(/C=C2\CC3C4CCC5=CC(=O)CC[C@]5(C)C4CC[C@]3(C)C2=O)ccc1OCCN1CCCC1` (stereo not given in full), the GI50 in the experiment on ACHN renal was 2.94 µM; in the experiment on EKVX NSCLC, 3.98 µM; in the experiment on IGROV1 ovarian, 2.33 µM; in the experiment with MDA-MB-231 breast, 2.01 µM; in the experiment with MDA-MB-435, 2.15 µM; in the experiment on MOLT-4 leukemia, 0.689 µM. For the same compound, the GI50 with NCI-H522 lung was 2.33 µM; with RPMI-8226 leukemia, 0.202 µM. In addition, the TGI turned out to be 9.16 µM with ACHN renal; 17.3 µM in the experiment with EKVX NSCLC; 5.73 µM in the experiment on IGROV1 ovarian; 5.1 µM with MDA-MB-231 breast; 4.86 µM in the experiment on MDA-MB-435; 1.84 µM with MOLT-4 leukemia. Besides, the TGI is 5.45 µM with NCI-H522 lung and 0.889 µM in the experiment with RPMI-8226 leukemia.
As to `Cc1nc2ccc(-n3ncc(C(=O)c4cc5ccccc5[nH]4)c3N)cc2[nH]1`, the GI50 in the experiment on ACHN renal was 5.73 µM; in the experiment on EKVX NSCLC it was 20.9 µM; in the experiment on IGROV1 ovarian, 9.74 µM; with MDA-MB-231 breast it was 10.6 µM; with MDA-MB-435, 14.5 µM; in the experiment with MOLT-4 leukemia it was 5.99 µM. Besides, the GI50 was 10.1 µM in the experiment with NCI-H522 lung and 8.1 µM in the experiment with RPMI-8226 leukemia. Besides, the TGI in the experiment with ACHN renal was > 100 µM; in the experiment with EKVX NSCLC, > 100 µM; with IGROV1 ovarian, > 100 µM; with MDA-MB-231 breast it was 40.7 µM; in the experiment on MDA-MB-435 it was > 100 µM; with MOLT-4 leukemia it was 56.1 µM. Moreover, the TGI was determined as 33.3 µM with NCI-H522 lung and 54.7 µM with RPMI-8226 leukemia.
For `CCOC(=O)c1c(C)n([O-])c2cc(F)c(F)cc2[n+]1=O`, the GI50 in the experiment with ACHN renal is 1.73 µM; with EKVX NSCLC it was 1.96 µM; in the experiment with IGROV1 ovarian it was 0.491 µM; in the experiment on MDA-MB-231 breast it was 0.955 µM; with MDA-MB-435, 1.56 µM; with MOLT-4 leukemia it was 0.541 µM. The results for the GI50 with NCI-H522 lung and in the experiment with RPMI-8226 leukemia were 1.04 µM and 6.18 µM, respectively. Moreover, the TGI in the experiment with ACHN renal is 3.23 µM; in the experiment on EKVX NSCLC it was 3.98 µM; in the experiment with MDA-MB-231 breast it was 2.58 µM; with MDA-MB-435 it was 3.11 µM; in the experiment with MOLT-4 leukemia, 6.62 µM; in the experiment on NCI-H522 lung it was 2.72 µM. The compound further returned a TGI in the experiment on RPMI-8226 leukemia of 28.2 µM.
On to `CCN1CCN(Cc2ccc(NC(=O)Nc3nc(-c4cc(OC)c(OC)c(OC)c4)cs3)cc2C(F)(F)F)CC1`, for which the GI50 is 1.91 µM with ACHN renal; 1.81 µM with EKVX NSCLC; 1.93 µM in the experiment with IGROV1 ovarian; 1.6 µM in the experiment on MDA-MB-231 breast; 1.5 µM with MDA-MB-435; 1.29 µM with MOLT-4 leukemia. The GI50 in the experiment with NCI-H522 lung is 1.65 µM; in the experiment on RPMI-8226 leukemia, 1.63 µM. In addition, the TGI is 4.1 µM in the experiment with ACHN renal; 4.25 µM with EKVX NSCLC; 4.59 µM in the experiment with IGROV1 ovarian; 3.46 µM with MDA-MB-231 breast; 2.82 µM in the experiment on MDA-MB-435; 3.69 µM with MOLT-4 leukemia. Also, the TGI with NCI-H522 lung worked out at 3.13 µM; with RPMI-8226 leukemia, 4.24 µM.
On to `Cc1cc(O)ccc1C1(c2ccc(O)cc2C)OC(=O)c2ccccc21`, for which the GI50 is 16 µM with ACHN renal; 14.9 µM in the experiment on EKVX NSCLC; 21 µM with IGROV1 ovarian; 21.4 µM in the experiment on MDA-MB-231 breast; 15.6 µM with MDA-MB-435; 23.8 µM in the experiment with MOLT-4 leukemia. The GI50 was 18.5 µM in the experiment with NCI-H522 lung and 28.1 µM in the experiment with RPMI-8226 leukemia. For the same compound, the TGI in the experiment with ACHN renal was 31.8 µM; with EKVX NSCLC it was 31 µM; with IGROV1 ovarian, 47.5 µM; in the experiment on MDA-MB-231 breast, 48.9 µM; in the experiment on MDA-MB-435, 29.7 µM; in the experiment on MOLT-4 leukemia, 58.9 µM. The figures for the TGI in the experiment on NCI-H522 lung and in the experiment on RPMI-8226 leukemia were 35 µM and 78.7 µM, respectively.
Turning to `CC(C)n1cc(-c2ccc3c(c2)N(C)CC3)c2c(NS(=O)(=O)c3ccn(C)n3)ccnc21`, the GI50 with ACHN renal was 49.8 µM; in the experiment with EKVX NSCLC, 28.2 µM; in the experiment on IGROV1 ovarian, 59.1 µM; in the experiment on MDA-MB-231 breast it was 76.1 µM; in the experiment with MDA-MB-435 it was 83 µM; in the experiment with MOLT-4 leukemia, 65.7 µM. The GI50 in the experiment on NCI-H522 lung is 49.3 µM; in the experiment on RPMI-8226 leukemia, 54.2 µM. Moreover, the TGI with ACHN renal, in the experiment with EKVX NSCLC, with IGROV1 ovarian, in the experiment on MDA-MB-231 breast, in the experiment on MDA-MB-435 and in the experiment with MOLT-4 leukemia was > 100 µM each time. In addition, the TGI with NCI-H522 lung and with RPMI-8226 leukemia was > 100 µM throughout.
Regarding `O=C(Cc1cc(O)ccc1O)NO`, the GI50 was > 100 µM in the experiment with ACHN renal; > 100 µM in the experiment on EKVX NSCLC; > 100 µM in the experiment on IGROV1 ovarian; 19.9 µM in the experiment on MDA-MB-231 breast; 15.4 µM in the experiment on MDA-MB-435; 19.7 µM in the experiment with MOLT-4 leukemia. Moreover, the values for the GI50 with NCI-H522 lung and in the experiment with RPMI-8226 leukemia were 91.7 µM and 19 µM, respectively. Moreover, the TGI with ACHN renal is > 100 µM; in the experiment on EKVX NSCLC it was > 100 µM; with IGROV1 ovarian, > 100 µM; in the experiment with MDA-MB-231 breast, 47 µM; in the experiment on MDA-MB-435, 31.2 µM; in the experiment with MOLT-4 leukemia, 41 µM. For the same compound, the results for the TGI with NCI-H522 lung and in the experiment on RPMI-8226 leukemia were > 100 µM and 40 µM, respectively.

For the origin of these results see PubChem BioAssay (NCI).
